# Measurements as given in patent US20250034171A1, “IMIDAZOPYRIDINE AMIDES AND RELATED COMPOUNDS FOR USE IN THE TREATMENT OF BACTERIAL INFECTIONS” (priority 2021, published 2025).
# Read-outs that look alike come from different tables or passages of the source.
# Key:
# [1] = Metabolic stability in liver microsomes (intrinsic clearance); assay type: in vitro ADME; conditions: microsomes
# Experimental: The test compound was incubated under the generic condition (0.5 mg/ml microsomal protein, 1 mM NADPH, 1 mM MgCl2, and 0.1 M phosphate buffer, pH 7.4, 37° C.) at a defined substrate concentration (typically 1 μM) in liver microsomes of selected species across a time course (typically 0, 5, 10, 20, 40 and 60 minutes) at Cyprotex (Cheshire, UK). The liver microsomes, buffer and test compound will be pre-incubated for 5 minutes. The addition of the co-factor NADPH will initiate the reaction and the reaction was terminated by addition of acetonitrile. The samples were centrifuged prior to analysis by LC-MS/MS analysis. The relative amount of parent compound remaining in the active incubations vs. the control incubations (t=0 mins) for each compound was measured by peak area comparison. The in vitro metabolic half-life (t1/2) was calculated using the slope of the log-linear regression from the percentage parent compound remaining versus time relationship (κ), The in vitro intrinsic clearance (Cl^int) (μl/min/mg microsomal protein) was calculated using the in vitro metabolic half-life, incubation volume and the weight of microsomal protein in the incubation.
# [2] = test system: Mycobacterium tuberculosis strain H37Rv; assay: Test 2: MIC determination against M. tuberculosis, resazurin fluorescence; assay type: cell-based; conditions: Test 2, M. tuberculosis H37Rv; for MIC90: read-out: Bacterial activity MIC90; for IC50: read-out: Bacterial activity pMIC50 (converted)
# [3] = mouse, pH 7.4, Metabolic Stability Half life (mouse, min.)
# [4] = mouse, pH 7.4, mouse liver microsomes, read-out: Metabolic Stability (liver microsome intrinsic clearance) Clearance (mouse, μl/min./mg protein)
# [5] = Mycobacterium tuberculosis, H37RV
smiles,measurement,setting,value
"CCc1nc2ncc(C)cn2c1C(=O)NCc1ccc(-c2nc3n(n2)CCC(C(F)(F)F)C3)cc1 (single isomer, unassigned) [Compound 1b]","Metabolic Stability (liver microsome intrinsic clearance) Clearance (human, μl/min./mg protein)",[1]; human,7.81 μl/min./mg protein
same,"Metabolic Stability Half life (human, min.)",[1]; human,2.97 h
same,"Metabolic Stability (liver microsome intrinsic clearance) Clearance (mouse, μl/min./mg protein)",[1]; mouse,7.8 μl/min./mg protein
same,"Metabolic Stability Half life (mouse, min.)",[1]; mouse,2.97 h
same,Bacterial activity pMIC50,[2],8.576
same,MIC90,[2],0.007 µM
"CCc1nc2ncccn2c1C(=O)NCc1ccc(-c2nc3n(n2)CC[C@@H](C(F)(F)F)C3)c(F)c1 (single isomer, unassigned) [Compound 73]","Metabolic Stability (liver microsome intrinsic clearance) Clearance (mouse, μl/min./mg protein)",[1]; mouse,<7.7 μl/min./mg protein
same,"Metabolic Stability Half life (mouse, min.)",[1]; mouse,>3 h
same,Bacterial activity pMIC50,[2],7.18
same,MIC90,[2],0.35 µM
"CCc1nc2ncccn2c1C(=O)NCc1ccc(-c2nc3n(n2)CC[C@H](C(F)(F)F)C3)c(F)c1 (single isomer, unassigned) [Compound 74]","Metabolic Stability (liver microsome intrinsic clearance) Clearance (mouse, μl/min./mg protein)",[1]; mouse,<7.7 μl/min./mg protein
same,"Metabolic Stability Half life (mouse, min.)",[1]; mouse,>3 h
same,Bacterial activity pMIC50,[2],6.94
same,MIC90,[2],>0.5 µM
"CCc1nc2n(c1C(=O)NCc1ccc(-c3nc4n(n3)CC[C@H](C(F)(F)F)C4)c(F)c1)CCCC2 (single isomer, unassigned) [Compound 77]","Metabolic Stability (liver microsome intrinsic clearance) Clearance (mouse, μl/min./mg protein)",[1]; mouse,26.1 μl/min./mg protein
same,"Metabolic Stability Half life (mouse, min.)",[1]; mouse,0.885 h
same,Bacterial activity pMIC50,[2],7.6
same,MIC90,[2],0.098 µM
CCc1nc2ncc(C)cn2c1C(=O)NCc1ccc(-c2cn3c(n2)CC(C(F)(F)F)CC3)cc1 (stereo not drawn) [Compound 3ab],half-life at 1 µM,"[1]; human, pH 7.4, Metabolic Stability Half life (human, min.)",1.54 h
same,microsomal CLint at 1 µM,"[1]; human, pH 7.4, human liver microsomes, read-out: Metabolic Stability (liver microsome intrinsic clearance) Clearance (human, μl/min./mg protein)",15 µL/min/mg
same,half-life at 1 µM,[1]; [3],1.7 h
same,microsomal CLint at 1 µM,[1]; [4],13.6 µL/min/mg
same,MIC90,[2]; [5],0.009 µM
same,IC50,[2]; [5],3550 pM
CCc1nc2ncc(OC)cn2c1C(=O)NCc1ccc(-c2nc3n(n2)CC[C@H](C(F)(F)F)C3)cc1 [Compound 49],half-life at 1 µM,[1]; [3],1.8 h
same,microsomal CLint at 1 µM,[1]; [4],12.9 µL/min/mg
same,MIC90,[2]; [5],0.023 µM
same,IC50,[2]; [5],7760 pM
CCc1nc2ncc(C)cn2c1C(=O)NCc1ccc(-c2cc3n(n2)CCCC3)c(C)n1 [Compound 146],MIC90,[2]; [5],0.15 µM
same,IC50,[2]; [5],42700 pM
CCc1nc2ncc(C)cn2c1C(=O)NCc1ccc(-c2cn3c(n2)CC(C(F)F)CC3)cc1 (stereo not drawn) [Compound 147],Bacterial activity pMIC50,[2],7.82
same,MIC90,[2],0.05 µM
CCc1nc2ncc(C)cn2c1C(=O)NCc1ccc(-c2nc3n(n2)CCCC3)c(C)n1 [Compound 148],MIC90,[2]; [5],> 0.5 µM
same,IC50,[2]; [5],331000 pM
CCc1nc2ncccn2c1C(=O)NCc1ccc(-c2nc3n(n2)CCC(C)C3)cc1 (stereo not drawn) [Compound 149],MIC90,[2]; [5],> 0.5 µM
same,IC50,[2]; [5],229000 pM
[2H]C([2H])([2H])c1cnc2nc(CC)c(C(=O)NCc3ccc(-c4nc5n(n4)CC[C@@H](C)C5)cc3)n2c1 [Compound 150],MIC90,[2]; [5],0.03 µM
same,IC50,[2]; [5],10000 pM
CCc1nc2ccc(C(F)(F)F)cn2c1C(=O)NCc1ccc(-c2cn3c(n2)C[C@@H](C(F)(F)F)CC3)cc1 [Compound 153],MIC90,[2]; [5],> 0.5 µM
same,IC50,[2]; [5],> 501000 pM
CCc1nc2ccc(C(F)(F)F)cn2c1C(=O)NCc1ccc(-c2cn3c(n2)C[C@H](C(F)(F)F)CC3)cc1 [Compound 154],MIC90,[2]; [5],> 0.5 µM
same,IC50,[2]; [5],> 501000 pM
CCc1nc2ncc(C(F)(F)F)cn2c1C(=O)NCc1ccc(-c2nc3n(n2)CC[C@@H](C)C3)cc1 [Compound 155],MIC90,[2]; [5],> 0.5 µM
same,IC50,[2]; [5],> 501000 pM
CCc1nc2ncccn2c1C(=O)NCc1ccc(-c2nc3n(n2)CC[C@@H](C)C3)cc1 [Compound 156],MIC90,[2]; [5],> 0.5 µM
same,IC50,[2]; [5],191000 pM
CCc1nc2ncccn2c1C(=O)NCc1ccc(-c2nc3n(n2)CC[C@H](C)C3)cc1 [Compound 157],MIC90,[2]; [5],0.41 µM
same,IC50,[2]; [5],126000 pM
CCc1nc2ncccn2c1C(=O)NCc1ccc(-c2cn3c(n2)C[C@H](C(F)(F)F)CC3)cc1 [Compound 158],MIC90,[2]; [5],0.29 µM
same,IC50,[2]; [5],75900 pM
CCc1nc2ccccn2c1C(=O)NCc1ccc(-c2nc3n(n2)CC[C@H](C)C3)cc1 [Compound 159],MIC90,[2]; [5],0.037 µM
same,IC50,[2]; [5],11000 pM
CCc1nc2n(c1C(=O)NCc1ccc(-c3nc4n(n3)CC[C@H](C)C4)cc1)CCCC2 [Compound 160],MIC90,[2]; [5],0.088 µM
same,IC50,[2]; [5],35500 pM
CCc1nc2ccccn2c1C(=O)NCc1ccc(-c2cn3c(n2)C[C@@H](C(F)(F)F)CC3)cc1 [Compound 161],MIC90,[2]; [5],0.056 µM
same,IC50,[2]; [5],18600 pM
CCc1nc2ccccn2c1C(=O)NCc1ccc(-c2nc3n(n2)CC[C@@H](C)C3)cc1 [Compound 162],MIC90,[2]; [5],0.044 µM
same,IC50,[2]; [5],11200 pM
CCc1nc2n(c1C(=O)NCc1ccc(-c3nc4n(n3)CC[C@@H](C)C4)cc1)CCCC2 [Compound 163],MIC90,[2]; [5],0.17 µM
same,IC50,[2]; [5],66100 pM
CCc1nc2n(c1C(=O)NCc1ccc(-c3cn4c(n3)C[C@H](C(F)(F)F)CC4)cc1)CCCC2 [Compound 164],MIC90,[2]; [5],0.058 µM
same,IC50,[2]; [5],17000 pM
CCc1nc2ccccn2c1C(=O)NCc1ccc(-c2cn3c(n2)C[C@H](C(F)(F)F)CC3)cc1 [Compound 165],MIC90,[2]; [5],0.055 µM
same,IC50,[2]; [5],16200 pM
CCc1nc2ncccn2c1C(=O)NCc1ccc(-c2cn3c(n2)C[C@@H](C(F)(F)F)CC3)cc1 [Compound 166],MIC90,[2]; [5],> 0.5 µM
same,IC50,[2]; [5],145000 pM
CCc1nc2n(c1C(=O)NCc1ccc(-c3nc4n(n3)CC[C@@H](C(F)(F)F)C4)cc1)C[C@@H](OC)CC2 [Compound 167],MIC90,[2]; [5],0.45 µM
same,IC50,[2]; [5],132000 pM
CCc1nc2n(c1C(=O)NCc1ccc(-c3nc4n(n3)CC[C@H](C(F)(F)F)C4)cc1)C[C@@H](OC)CC2 [Compound 168],MIC90,[2]; [5],0.5 µM
same,IC50,[2]; [5],174000 pM
O=C(NCc1ccc(-c2nc3n(n2)CC[C@H](C(F)(F)F)C3)cc1)c1c(C(F)(F)F)nc2ncccn12 [Compound 170],MIC90,[2]; [5],> 0.45 µM
same,IC50,[2]; [5],> 275000 pM
CCc1nc2ncccn2c1C(=O)NCc1ccc(-c2nc3n(n2)CC[C@@H](C(F)(F)F)C3)cc1 [Compound 171],MIC90,[2]; [5],0.18 µM
same,IC50,[2]; [5],46800 pM
CCc1nc2ncc(C(F)(F)F)cn2c1C(=O)NCc1ccc(-c2nc3n(n2)CC[C@@H](C(F)(F)F)C3)cc1 [Compound 172],MIC90,[2]; [5],> 0.46 µM
same,IC50,[2]; [5],> 295000 pM
CCc1nc2ncc(C(F)(F)F)cn2c1C(=O)NCc1ccc(-c2nc3n(n2)CC[C@H](C(F)(F)F)C3)cc1 [Compound 173],Bacterial activity pMIC50,[2],<6.49
same,MIC90,[2],>0.47 µM
CCc1nc2ncc(Cl)cn2c1C(=O)NCc1ccc(-c2cn3c(n2)C[C@H](C(F)(F)F)CC3)cc1 [Compound 175],MIC90,[2]; [5],0.059 µM
same,IC50,[2]; [5],21900 pM
CCc1nc2ncc(Cl)cn2c1C(=O)NCc1ccc(-c2cn3c(n2)C[C@@H](C(F)(F)F)CC3)cc1 [Compound 176],MIC90,[2]; [5],0.039 µM
same,IC50,[2]; [5],12600 pM
CCc1nc2ncccn2c1C(=O)NCc1ccc(-c2nc3n(n2)C[C@@H](C(F)(F)F)CC3)cc1 [Compound 181],MIC90,[2]; [5],0.22 µM
same,IC50,[2]; [5],57500 pM
CCc1nc2ncccn2c1C(=O)NCc1ccc(-c2nc3n(n2)C[C@H](C(F)(F)F)CC3)cc1 [Compound 182],MIC90,[2]; [5],0.2 µM
same,IC50,[2]; [5],52500 pM
CCc1nc2n(c1C(=O)NCc1ccc(-c3cn4c(n3)CC(C(F)(F)F)CC4)c(F)c1)CCCC2 (stereo not drawn) [Compound 185],MIC90,[2]; [5],0.034 µM
same,IC50,[2]; [5],9770 pM
CCc1nc2ncccn2c1C(=O)NCc1ccc(-c2cc3n(n2)CCCC3)cc1 [Compound 187],MIC90,[2]; [5],> 0.5 µM
same,IC50,[2]; [5],151000 pM
CCc1nc2n(c1C(=O)NCc1ccc(-c3nc4n(n3)CC(C(F)(F)F)CC4)cc1)CCCC2 (stereo not drawn) [Compound 188],MIC90,[2]; [5],0.23 µM
same,IC50,[2]; [5],22900 pM
CCc1nc2ncccn2c1C(=O)NCc1ccc(-c2nc3n(n2)CCC(C(C)(F)F)C3)cc1 (stereo not drawn) [Compound 189],MIC90,[2]; [5],0.33 µM
same,IC50,[2]; [5],87100 pM
CCc1nc2ncccn2c1C(=O)NCc1ccc(-c2nc3n(n2)CC[C@H](C(F)(F)F)C3)cc1 [Compound 190],MIC90,[2]; [5],0.19 µM
same,IC50,[2]; [5],47900 pM
CCc1nc2ncc(C(F)(F)F)cn2c1C(=O)NCc1ccc(-c2cn3c(n2)C[C@H](C(F)(F)F)CC3)cc1 [Compound 192],MIC90,[2]; [5],> 5 µM
same,IC50,[2]; [5],1.55e+06 pM
CCc1nc2ncc(C(F)(F)F)cn2c1C(=O)NCc1ccc(-c2cn3c(n2)C[C@@H](C(F)(F)F)CC3)cc1 [Compound 193],MIC90,[2]; [5],> 0.5 µM
same,IC50,[2]; [5],> 501000 pM
CCc1nc2ncc(N)cn2c1C(=O)NCc1ccc(-c2nc3n(n2)CCC(C(F)(F)F)C3)c(F)c1 (stereo not drawn) [Compound 197],MIC90,[2]; [5],0.21 µM
same,IC50,[2]; [5],69200 pM
CCc1nc2ncc(N)cn2c1C(=O)NCc1ccc(-c2nc3n(n2)CCC(C(F)(F)F)C3)c(C)c1 (stereo not drawn) [Compound 198],MIC90,[2]; [5],0.15 µM
same,IC50,[2]; [5],45700 pM
CCc1nc2ncc(N)cn2c1C(=O)NCc1ccc(-c2nc3n(n2)CCCC3)cc1 [Compound 199],MIC90,[2]; [5],> 0.5 µM
same,IC50,[2]; [5],> 501000 pM
CCc1nc2ncc(N)cn2c1C(=O)NCc1ccc(-c2nc3n(n2)CCC(C(C)(F)F)C3)cc1 (stereo not drawn) [Compound 200],MIC90,[2]; [5],0.22 µM
same,IC50,[2]; [5],61700 pM
